This is an account of results in patent US12616704B2, “Cannabichromene formulation for pain management” (Zyus Life Sciences Inc., priority 2020, dated 2026).

For this test, the system named is Oxaliplatin-induced cool allodynia. Briefly: Acetone Cooling Test (ACT) in oxaliplatin-induced polyneuropathy (OIPN) model. The format is in vivo, C57BL/6J mice. The settings on record: CBC 20 mg/kg p.o. As for the experimental part: Model Induction—Mouse Oxaliplatin-induced polyneuropathy (OIPN) model was induced over a three-week period. The day of first Oxaliplatin (OXP) injection is referred to as day 0 (DO). OXP was administered as six separate intraperitoneal injections at 4.5-mg/kg (10 ml/kg, i.p.) to Groups 2, 3, and 4 on DO, D4, D8, D12, D16, and D20. The cumulative OXP dose was thus 27 mg/kg. The in-life procedures, such as observations, tests, and/or measurements were performed by Charles River Discovery Services with blinded methods. The mice were distributed into 4 groups (n=8 for Vehicle Control; n=10 OXP Control; n=20 CBC; n=15 Duloxetine).
Treatments—Following exposure to OXP for 20 days, Groups 3 and 4 were treated with CBC (20 mg/kg, p.o.) and Duloxetine (25 mg/kg, i.p.), respectively, for 10 consecutive days. In a similar regimen Groups 1 and 2 (Vehicle Control and OXP-Vehicle Control, respectively) received a corresponding volume of 5% glucose solution at an administration volume of 10 mL/kg.
Acetone Cooling Test (ACT) —To produce a measurable cooling sensation, 10-15 μL of acetone was applied onto the medial area of the plantar hind paw with a 0.5 ml insulin syringe. Responses of a mouse to acetone were monitored for 20 s, and a score given based on a four-point scale (0-3 points), according to the response intensity, continuation, and briskness. The higher the score, the greater the cool allodynia sensed by the mouse.
Within one test timepoint, a total of 3 trials were performed per paw with a minimum gap of 5 min between testing. The three individual scores were added up to obtain a single score over a cumulative period of 60 s. Thus, for one test, the minimum score of one paw is 0 (no cool allodynia), while the maximum possible score is 9 (intensive cool allodynia). The total scores for the left and right paws were averaged to accomplish a single result value per mouse at each timepoint.
The Acetone Cooling Test was performed prior to OXP administration (Baseline), following the last OXP injection (D21), one day after the first CBC, Duloxetine, or Vehicle treatment (D22), and after a 10-day daily dosing of CBC, Duloxetine, or Vehicle treatment (D31). Taken together, the ACT was used to assess chemotherapy-induce cool allodynia as stated in the schedule:
On D22: At 60 min after the first Vehicle/CBC dose and 120 min after Dulx dose.
On D31: At 60 min after the last Vehicle/CBC and 120 min after Dulx dose.

Consider `CCCCCc1cc(O)c2c(c1)OC(C)(CCC=C(C)C)C=C2` (centres unmarked) [CBC, cannabichromene], for which the “ACT score compared with OXP-Vehicle control” value runs as follows: (D22, acute single dose, Duloxetine 25 mg/kg i.p.) “statistically significant and comparable reduction in cool allodynia”; (D31, chronic repeated dosing, Duloxetine 25 mg/kg i.p.) “qualitative but not statistically significant reduction”. Further, the “ACT score compared with OXP-Vehicle control: p” value (D31, chronic repeated dosing, Mann-Whitney test) is given as 0.06. Further, where the note is “within group, 10-day repeated dosing, Duloxetine 25 mg/kg i.p.”, the “ACT score, D31 vs. D21” value is “significant reversion of cool allodynia”. The “ACT score, reversion of cool allodynia D22 vs. D21 pre-treatment: p” value (within group, single dose, Duloxetine 25 mg/kg i.p.) is less than 0.001.
